Source: patent publication US20230167124A1, “Methods for the Production of Nickel (II) Etioporphyrin-I” (Adgero Biopharmaceuticals Holdings, Inc., priority 2020, published 2023)

Assay: Solubility of etioporphyrin-I in chloroform
Format: physicochemical
Conditions: solvent chloroform
Method: In addition to the problems associated with the isolation of the dipyrromethenes, another difficulty in the syntheses of etioporphyrin I is the work up and purification procedures for isolating etioporphyrin-I. The coupling reaction of the dipyrromethenes (see Scheme 3, (5) and (6)) is carried out in refluxing formic acid. Generally, this gives a tarry, black reaction mixture that yield about 20-35% of etioporphyrin-I after extensive chromatography. On small scales (1-40 g of dipyrromethenes), dissolution of the tarry reaction mixture in chloroform, followed by neutralization and chromatography on large amounts of silica affords the desired porphyrin. […] During this process it is not uncommon for etioporphyrin-I to precipitate from solution onto the silica gel, making column chromatography (even on small scale (10 g)) difficult. Clearly, such a process is not feasible economically on large scale.

A solubility in chloroform of under 10000 µg/mL was found for etioporphyrin-I in this work.
